Patent publication US11225480B2, “Malic enzyme inhibitors” (SUN PHARMA ADVANCED RESEARCH COMPANY LTD, priority 2019, dated 2022)

Key:
Assay type in all cases: biochemical
human ME3 enzyme = target: T1, human ME3 enzyme (Homo sapiens, UniProt Q16798); experiment: ME3 inhibition assay (diaphorase/resazurin coupled fluorescence); conditions: 10 μM compound concentration; read-out: Malic Enzyme 3 % inhibition (10 μM)
T1 sequence (Q16798 1-604): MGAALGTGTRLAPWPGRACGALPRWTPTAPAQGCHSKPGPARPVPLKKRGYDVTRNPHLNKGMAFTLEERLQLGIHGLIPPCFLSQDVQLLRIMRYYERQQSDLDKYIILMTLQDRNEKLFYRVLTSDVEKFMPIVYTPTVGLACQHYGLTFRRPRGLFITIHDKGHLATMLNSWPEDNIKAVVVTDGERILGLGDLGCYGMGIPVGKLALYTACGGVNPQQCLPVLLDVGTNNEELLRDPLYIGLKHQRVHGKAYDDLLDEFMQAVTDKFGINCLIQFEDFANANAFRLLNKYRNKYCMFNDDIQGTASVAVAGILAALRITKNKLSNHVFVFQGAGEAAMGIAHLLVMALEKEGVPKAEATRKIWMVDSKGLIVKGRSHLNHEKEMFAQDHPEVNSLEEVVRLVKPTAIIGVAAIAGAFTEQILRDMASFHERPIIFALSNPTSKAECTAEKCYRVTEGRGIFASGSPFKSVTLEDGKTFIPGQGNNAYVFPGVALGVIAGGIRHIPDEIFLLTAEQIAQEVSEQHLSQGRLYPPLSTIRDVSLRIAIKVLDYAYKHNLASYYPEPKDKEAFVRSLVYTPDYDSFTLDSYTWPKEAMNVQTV
How it was run: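 Coupled read-out: NADPH made by human ME3 (20 nM stock) drives diaphorase conversion of resazurin (50 μM) to resorufin; buffer 50 mM Tris-HCl pH 7.5, 10 mM MnCl2, 3 mM L-malate.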

human ME2 enzyme = human ME2 enzyme (Homo sapiens, UniProt P23368); experiment: ME2 inhibition assay (diaphorase/resazurin coupled fluorescence); conditions: 10 μM compound concentration; read-out: Malic Enzyme 2 % inhibition (10 μM)
Sequence of human ME2 enzyme (P23368 19-584): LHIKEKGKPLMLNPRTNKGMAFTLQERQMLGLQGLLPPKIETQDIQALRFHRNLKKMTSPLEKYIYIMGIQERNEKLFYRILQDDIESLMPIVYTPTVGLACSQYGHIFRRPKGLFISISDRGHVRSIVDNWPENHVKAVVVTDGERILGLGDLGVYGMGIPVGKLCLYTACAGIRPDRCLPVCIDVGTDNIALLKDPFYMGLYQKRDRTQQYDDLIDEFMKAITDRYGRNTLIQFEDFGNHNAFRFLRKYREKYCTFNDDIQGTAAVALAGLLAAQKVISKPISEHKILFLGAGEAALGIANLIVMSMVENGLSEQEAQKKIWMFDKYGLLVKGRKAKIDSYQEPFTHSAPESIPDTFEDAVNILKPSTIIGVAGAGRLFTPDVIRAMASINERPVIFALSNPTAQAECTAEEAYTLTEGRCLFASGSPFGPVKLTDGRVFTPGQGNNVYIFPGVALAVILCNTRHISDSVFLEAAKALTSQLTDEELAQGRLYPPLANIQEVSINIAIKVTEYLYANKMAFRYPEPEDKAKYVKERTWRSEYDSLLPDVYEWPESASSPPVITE
How it was run: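 Human ME2 (10 μL of 60 nM) was preincubated 5 min at room temperature with compound (10 μM) in 50 mM Tris-HCl pH 7.5, 10 mM MnCl2, 7 mM L-malate, 50 μM resazurin and 0.025 mg/ml diaphorase. The reaction was started with 10 μL of 2 mM β-NAD+ and run 2 hours at room temperature. Resorufin fluorescence (ex 540/em 600 nm) was normalized to enzyme-only (100%) and no-enzyme (0%) controls as % activity.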

human ME1 enzyme = target: T2, human ME1 enzyme (Homo sapiens, UniProt P48163); experiment: ME1 inhibition assay (diaphorase/resazurin coupled fluorescence); conditions: 10 μM compound concentration; read-out: Malic Enzyme 1 % inhibition (10 μM)
T2 sequence (P48163 1-572): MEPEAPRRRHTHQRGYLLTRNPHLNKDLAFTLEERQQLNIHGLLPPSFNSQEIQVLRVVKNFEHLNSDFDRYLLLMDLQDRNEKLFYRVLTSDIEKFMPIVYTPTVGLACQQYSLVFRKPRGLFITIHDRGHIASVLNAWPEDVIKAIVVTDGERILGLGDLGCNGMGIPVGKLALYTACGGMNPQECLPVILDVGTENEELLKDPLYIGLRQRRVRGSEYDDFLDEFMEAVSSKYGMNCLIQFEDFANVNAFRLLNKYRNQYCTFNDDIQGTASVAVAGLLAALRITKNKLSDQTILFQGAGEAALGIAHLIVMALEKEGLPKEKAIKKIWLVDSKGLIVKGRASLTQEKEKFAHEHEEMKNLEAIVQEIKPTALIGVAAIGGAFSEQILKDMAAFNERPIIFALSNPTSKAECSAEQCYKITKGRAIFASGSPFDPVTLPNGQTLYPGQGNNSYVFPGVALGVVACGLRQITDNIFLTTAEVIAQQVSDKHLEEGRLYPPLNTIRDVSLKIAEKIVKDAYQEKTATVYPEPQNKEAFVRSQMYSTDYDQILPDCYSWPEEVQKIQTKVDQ
How it was run: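 Compounds at 10 μM preincubated 15 min in 50 mM Tris-HCl pH 7.5, 10 mM MnCl2, 2 mM L-malate, 10 μM resazurin, 0.01 mg/ml diaphorase, then human ME1 added for 5 min; reaction started with NADP+ and run 2 h at room temperature. Resorufin fluorescence (ex 540/em 600 nm) normalized to enzyme-only (100%) and no-enzyme (0%) controls.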

Measured: inhibition at 10 µM

Cc1cc(F)ccc1CCC(=O)N1CCN(c2ccc(O)cn2)CC1 [I.145, 3-(4-Fluoro-2-methyl-phenyl)-1-[4-(5-hydroxy-pyridin-2-yl)-piperazin-1-yl]-propan-1-one]
> 90%: all assays above

Cc1cccc(CCC(=O)N2CCN(c3ccc(O)cn3)CC2)c1C [I.146, 3-(2,3-Dimethyl-phenyl)-1-[4-(5-hydroxy-pyridin-2-yl)-piperazin-1-yl]-propan-1-one]
> 90%: all assays above

Cc1cccc(C)c1CCC(=O)N1CCN(c2ccc(O)cn2)CC1 [I.147, 3-(2,6-Dimethyl-phenyl)-1-[4-(5-hydroxy-pyridin-2-yl)-piperazin-1-yl]-propan-1-one]
> 90%: all assays above

O=C(Cc1cc(F)cc(F)c1)N1CCN(c2ccc(O)cc2)CC1 [I.148, 2-(3,5-difluoro-phenyl)-1-[4-(4-hydroxy-phenyl)-piperazin-1-yl]-ethanone]
> 90%: all assays above

O=C(Cc1ccc(F)cc1F)N1CCN(c2ccc(O)cc2)CC1 [I.149, 2-(2,4-difluoro-phenyl)-1-[4-(4-hydroxy-phenyl)-piperazin-1-yl]-ethanone]
> 90%: all assays above

O=C(Cc1c[nH]c2ccc(F)cc12)N1CCN(c2ccc(O)cc2)CC1 [I.150, 2-(5-fluoro-1H-indol-3-yl)-1-[4-(4-hydroxy-phenyl)-piperazin-1-yl]-ethanone]
> 90%: all assays above

O=C(CSc1ccccc1Br)N1CCN(c2ccc(O)cc2)CC1 [I.151, 2-(2-bromo-phenylsulfanyl)-1-[4-(4-hydroxy-phenyl)-piperazin-1-yl]-ethanone]
> 90%: all assays above

O=C(CCc1ccc(F)cc1F)N1CCN(c2ccc(O)cn2)CC1 [I.152, 3-(2,4-Difluoro-phenyl)-1-[4-(5-hydroxy-pyridin-2-yl)-piperazin-1-yl]-propan-1-one]
> 90%: all assays above

O=C(CCc1ccc(F)c(F)c1)N1CCN(c2ccc(O)cn2)CC1 [I.153, 3-(3,4-Difluoro-phenyl)-1-[4-(5-hydroxy-pyridin-2-yl)-piperazin-1-yl]-propan-1-one]
> 90%: all assays above

Cc1cccc(Cl)c1C(=O)N1CCN(c2ccc(O)cc2)CC1 [I.154, (2-Chloro-6-methylphenyl)-[4-(4-hydroxy-phenyl)-piperazin-1-yl]-methanone]
> 90%: all assays above

O=C(c1c[nH]c2ccc(F)cc12)N1CCN(c2ccc(O)cn2)CC1 [I.155, (5-Fluoro-1H-indol-3-yl)-[4-(5-hydroxy-pyridin-2-yl)-piperazin-1-yl]-methanone]
> 90%: all assays above

O=C(c1c[nH]c2ccc(F)cc12)N1CCN(c2ccc(O)cc2)CC1 [I.156, (5-Fluoro-1H-indol-3-yl)-[4-(4-hydroxy-phenyl)-piperazin-1-yl]-methanone]
> 90%: all assays above

O=C(CCc1c(F)cccc1F)N1CCN(c2ccc(O)cn2)CC1 [I.157, 3-(2,6-Difluoro-phenyl)-1-[4-(5-hydroxy-pyridin-2-yl)-piperazin-1-yl]-propan-1-one]
> 90%: all assays above

O=C(Cc1c[nH]c2cc(F)ccc12)N1CCN(c2ccc(O)cn2)CC1 [I.158, 2-(6-Fluoro-1H-indol-3-yl)-1-[4-(5-hydroxy-pyridin-2-yl)-piperazin-1-yl]-ethanone]
> 90%: all assays above

O=C(Cc1c[nH]c2ccc(Cl)cc12)N1CCN(c2ccc(O)cn2)CC1 [I.159, 2-(5-Chloro-1H-indol-3-yl)-1-[4-(5-hydroxy-pyridin-2-yl)-piperazin-1-yl]-ethanone]
> 90%: all assays above

O=C(Cc1c[nH]c2cc(F)c(F)cc12)N1CCN(c2ccc(O)cn2)CC1 [I.160, 2-(5,6-Difluoro-1H-indol-3-yl)-1-[4-(5-hydroxy-pyridin-2-yl)-piperazin-1-yl]-ethanone]
> 90%: all assays above

CC(C)(CC(=O)N1CCN(c2ccc(O)cn2)CC1)c1ccc(F)cc1 [I.161, 3-(4-Fluoro-phenyl)-1-[4-(5-hydroxy-pyridin-2-yl)-piperazin-1-yl]-3-methyl-butan-1-one]
> 90%: all assays above

CC(C)(Sc1ccccc1Br)C(=O)N1CCN(c2ccc(O)cn2)CC1 [I.162, 2-(2-Bromo-phenyl-sulfanyl)-1-[4-(5-hydroxy-pyridin-2-yl)-piperazin-1-yl]-2-methyl-propan-1-one]
> 90%: all assays above

O=C(CSc1ccc(F)cc1)N1CCN(c2ccc(O)cn2)CC1 [I.163, 2-(4-Fluoro-phenyl-sulfanyl)-1-[4-(5-hydroxy-pyridin-2-yl)-piperazin-1-yl]-ethanone]
> 90%: all assays above

O=C(COc1ccc(F)cc1)N1CCN(c2ccc(O)cn2)CC1 [I.164, 2-(4-Fluoro-phenoxy)-1-[4-(5-hydroxy-pyridin-2-yl)-piperazin-1-yl]-ethanone]
> 90%: all assays above

Cn1cc(CC(=O)N2CCN(c3ccc(O)cn3)CC2)c2cc(F)ccc21 [I.165, 2-(5-Fluoro-1-methyl-indol-3-yl)-1-[4-(5-hydroxy-pyridin-2-yl)-piperazin-1-yl]-ethanone]
> 90%: all assays above

Cc1[nH]c2ccc(F)cc2c1CC(=O)N1CCN(c2ccc(O)cn2)CC1 [I.166, 2-(5-Fluoro-2-methyl-1H-indol-3-yl)-1-[4-(5-hydroxy-pyridin-2-yl)-piperazin-1-yl]-ethanone]
> 90%: all assays above
